Patent US20260191769A1, “DRUG ELUTING IMPLANTS AND USES THEREOF” (MUSC FOUNDATION FOR RESEARCH DEVELOPMENT, priority 2022, published 2026)
Like-named read-outs stand apart in the source and are kept apart here.

Test system: Methicillin-Resistant Staphylococcus aureus (MRSA)
Assay: microbe, parasite or virus in culture
Description: At the prescribed time points, gels were removed and placed in active bacteria cultures for 24 hours. After 24 hours, the gels were removed and the bacteria zone of exclusion will be measured.
Briefly, Methicillin-Resistant Staphylococcus aureus (MRSA) was cultured in brain-heart infusion broth and diluted to match a 0.5 McFarland turbidity standard. The resulting culture was tested with gram stain to ensure the MRSA was present. After determining that the MRSA was indeed gram-positive and present, the MRSA was carefully spread onto 150 mm agar plates to inoculate the plates. 5 mcg and 30 mcg vancomycin loaded disks were placed on each agar plate as antibiotic controls. Six plates were run in this experiment, with three plates containing aliquots (from the eluates collected from the study of Example 1 Aim 1) with peroxide (FIG. 7A), while the other three plates contained aliquots run with collagenase & phosphate buffered saline (FIG. 7B).
Aliquots from days 3, 7, 14, 21, and 28 were run. 10 μL of each aliquot was pipetted onto filter paper and placed onto the agar plates. The agar plates were incubated for 24 hours at 37 degrees Celsius, and the zones of inhibition were measured the following morning.

CN[C@H](CC(C)C)C(=O)N[C@H]1C(=O)N[C@@H](CC(N)=O)C(=O)N[C@H]2C(=O)N[C@H]3C(=O)N[C@H](C(=O)N[C@H](C(=O)O)c4cc(O)cc(O)c4-c4cc3ccc4O)[C@H](O)c3ccc(c(Cl)c3)Oc3cc2cc(c3O[C@@H]2O[C@H](CO)[C@@H](O)[C@H](O)[C@H]2O[C@H]2C[C@](C)(N)[C@H](O)[C@H](C)O2)Oc2ccc(cc2Cl)[C@H]1O [Vanc., vancomycin]
zone of inhibition at 5 µg/disc (read-out: 5 mcg Vanc. zone of inhibition, average, 5 mcg vancomycin control disk, average of plates 1-3 (collagenase & phosphate buffered saline)): 1.33 mm | zone of inhibition at 5 µg/disc (read-out: 5 mcg Vanc. zone of inhibition, average, 5 mcg vancomycin control disk, average of plates 4-6 (peroxide)): 1.33 mm | zone of inhibition at 30 µg/disc (read-out: 30 mcg Vanc. zone of inhibition, average, 30 mcg vancomycin control disk, average of plates 1-3 (collagenase & phosphate buffered saline)): 4.67 mm | zone of inhibition at 30 µg/disc (read-out: 30 mcg Vanc. zone of inhibition, average, 30 mcg vancomycin control disk, average of plates 4-6 (peroxide)): 4.33 mm
